Test results published in ChEMBL document CHEMBL1153309, “Synthesis and biological evaluation of platensimycin analogs” (Bioorg Med Chem Lett, 2009).
Values after ≈ are worked out from the molar mass of the structure shown.

Key:
[1] = molecular target: T1, 3-oxoacyl-[acyl-carrier-protein] synthase 2 (Staphylococcus aureus, UniProt Q5TKS0); experiment: Inhibition of FabF-mediated type 2 fatty acid synthesis in Staphylococcus aureus by cell free assay
T1 sequence (Q5TKS0 whole entry): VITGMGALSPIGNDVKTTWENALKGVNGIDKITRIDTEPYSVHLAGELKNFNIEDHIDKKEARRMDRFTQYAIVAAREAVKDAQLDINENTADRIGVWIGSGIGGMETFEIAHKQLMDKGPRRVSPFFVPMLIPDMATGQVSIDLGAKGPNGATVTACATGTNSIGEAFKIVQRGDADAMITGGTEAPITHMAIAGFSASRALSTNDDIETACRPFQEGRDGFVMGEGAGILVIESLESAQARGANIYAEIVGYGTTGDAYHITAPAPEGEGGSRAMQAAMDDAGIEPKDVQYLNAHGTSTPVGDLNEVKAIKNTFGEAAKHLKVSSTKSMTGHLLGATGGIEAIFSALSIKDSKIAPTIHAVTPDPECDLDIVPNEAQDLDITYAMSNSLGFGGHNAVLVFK

Staphylococcus aureus [2] = experiment: Antibacterial activity against antisense fabH/fabF sensitized Staphylococcus aureus assessed as minimum concentration required to show differential zone of fabF antisense strain clearance by two plate differential sensitivity assay; assay type: functional
Staphylococcus aureus [3] = experiment: Antimicrobial activity against wild type Staphylococcus aureus; assay type: functional

IC50 [1] | MIC (Staphylococcus aureus [3]) | Compound | Activity (Staphylococcus aureus [2])
5.27 µM | 4 µg/mL (≈ 8.78 µM) | CC1=CC(=O)[C@@](C)(CCC(=O)Nc2c(O)ccc(C(=O)O)c2O)C2C3CC4CC12CC4(C)O3 (stereo not given in full) | 0.03 µg/mL
> 436 µM | > 64 µg/mL | CN1CC23CC4CC(OC4(C)C2)C3[C@](C)(CCC(=O)Nc2c(O)ccc(C(=O)O)c2O)C1=O (stereo not given in full) | >2.7 µg/mL
22.4 µM | 16 µg/mL (≈ 34.2 µM) | CC12CC34Cc5cnoc5[C@@](C)(CCC(=O)Nc5c(O)ccc(C(=O)O)c5O)C3C(CC1C4)O2 (stereo not given in full) | 0.3 µg/mL
156 µM | > 64 µg/mL | Cn1ncc2c1[C@@](C)(CCC(=O)Nc1c(O)ccc(C(=O)O)c1O)C1C3CC4CC1(C2)CC4(C)O3 (stereo not given in full) | >2.7 µg/mL
20.9 µM | 1 µg/mL (≈ 2.2 µM) | CC12CC34CC1CC(O2)C3[C@](C)(CCC(=O)Nc1c(O)ccc(C(=O)O)c1O)C(=O)[C@@H]1C[C@@H]14 (stereo not given in full) | 0.1 µg/mL
165 µM | > 64 µg/mL | CC12CC34COC(=O)[C@@](C)(CCC(=O)Nc5c(O)ccc(C(=O)O)c5O)C3C(CC1C4)O2 (stereo not given in full) | >2.7 µg/mL
28.4 µM | 4 µg/mL (≈ 8.74 µM) | CC1CC(=O)[C@@](C)(CCC(=O)Nc2c(O)ccc(C(=O)O)c2O)C2C3CC4CC12CC4(C)O3 (stereo not given in full) | <20 µg/mL
7.7 µM | 4 µg/mL (≈ 7.7 µM) | CC12CC34CC1CC(O2)C3[C@](C)(CCC(=O)Nc1c(O)ccc(C(=O)O)c1O)C(=O)CC4c1ccccc1 (stereo not given in full) [PHENYL DIHYDROPLATENSIMYCIN] | <20 µg/mL

Compound | IC50 [1] | MIC (Staphylococcus aureus [3]) | Activity (Staphylococcus aureus [2])
CC12CC34CCC(=O)[C@@](C)(CCC(=O)Nc5c(O)ccc(C(=O)O)c5O)C3C(CC1C4)O2 (stereo not given in full) [DIHYDROPLATENSIMYCIN] | 4.51 µM | 2 µg/mL (≈ 4.51 µM) | 0.4 µg/mL
CC12C[C@@]34C=CC(=O)[C@@](C)(CCC(=O)Nc5c(O)ccc(C(=O)O)c5O)C3[C@H](CC1C4)O2 (stereo not given in full) [PLATENSIMYCIN] | 1.13 µM | 0.5 µg/mL (≈ 1.13 µM) | 0.01 µg/mL
